# Article PMC12827886 (Acta Pharmaceutica Sinica. B, 2025)
# Biological target: Cereblon (CRBN) (Homo sapiens, UniProt Q96SW2)
# Assay: biochemical
# Type: binding
# Chain of Cereblon (CRBN) (Q16531 2-1140): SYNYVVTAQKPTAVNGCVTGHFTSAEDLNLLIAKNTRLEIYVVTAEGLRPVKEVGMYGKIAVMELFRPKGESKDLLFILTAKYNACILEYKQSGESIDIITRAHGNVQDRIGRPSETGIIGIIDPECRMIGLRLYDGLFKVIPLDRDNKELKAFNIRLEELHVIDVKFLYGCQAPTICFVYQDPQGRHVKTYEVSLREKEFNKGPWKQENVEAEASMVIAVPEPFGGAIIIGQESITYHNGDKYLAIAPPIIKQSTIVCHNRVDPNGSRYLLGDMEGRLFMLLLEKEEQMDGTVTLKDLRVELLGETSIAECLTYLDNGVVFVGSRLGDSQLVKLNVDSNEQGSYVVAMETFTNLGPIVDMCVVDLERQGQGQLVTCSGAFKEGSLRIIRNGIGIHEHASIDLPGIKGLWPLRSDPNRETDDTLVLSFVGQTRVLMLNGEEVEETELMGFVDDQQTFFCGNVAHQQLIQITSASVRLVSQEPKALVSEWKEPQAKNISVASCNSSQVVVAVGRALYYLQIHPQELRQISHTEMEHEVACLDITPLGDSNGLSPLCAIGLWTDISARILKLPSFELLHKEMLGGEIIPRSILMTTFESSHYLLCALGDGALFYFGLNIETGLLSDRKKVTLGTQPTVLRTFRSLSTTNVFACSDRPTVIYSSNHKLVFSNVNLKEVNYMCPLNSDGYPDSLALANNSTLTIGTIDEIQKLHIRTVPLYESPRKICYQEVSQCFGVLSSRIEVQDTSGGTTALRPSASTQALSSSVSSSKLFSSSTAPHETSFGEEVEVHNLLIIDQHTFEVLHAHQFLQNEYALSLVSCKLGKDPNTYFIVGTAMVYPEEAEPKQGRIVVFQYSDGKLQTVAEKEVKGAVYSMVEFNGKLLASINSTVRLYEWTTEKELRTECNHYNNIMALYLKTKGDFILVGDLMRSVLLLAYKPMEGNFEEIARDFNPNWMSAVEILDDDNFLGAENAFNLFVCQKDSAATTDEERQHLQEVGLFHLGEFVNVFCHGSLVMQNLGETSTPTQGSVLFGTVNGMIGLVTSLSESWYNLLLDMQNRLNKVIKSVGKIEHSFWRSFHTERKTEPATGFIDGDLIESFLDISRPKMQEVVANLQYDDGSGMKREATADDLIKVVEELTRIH
# Chain of Cereblon (CRBN) (Q96SW2 whole entry): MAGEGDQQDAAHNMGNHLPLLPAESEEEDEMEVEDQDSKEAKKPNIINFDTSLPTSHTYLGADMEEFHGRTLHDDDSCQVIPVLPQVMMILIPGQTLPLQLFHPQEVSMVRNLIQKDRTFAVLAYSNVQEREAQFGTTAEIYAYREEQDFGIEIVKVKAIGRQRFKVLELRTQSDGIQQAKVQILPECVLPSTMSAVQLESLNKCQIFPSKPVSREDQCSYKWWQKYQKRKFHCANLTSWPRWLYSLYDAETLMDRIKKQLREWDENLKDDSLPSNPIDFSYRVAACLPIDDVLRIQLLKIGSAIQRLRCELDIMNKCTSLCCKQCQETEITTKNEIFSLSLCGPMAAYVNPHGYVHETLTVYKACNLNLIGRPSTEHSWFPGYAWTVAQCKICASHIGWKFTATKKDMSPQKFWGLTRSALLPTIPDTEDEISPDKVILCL
row,IC50,Compound
1,15.8 µM,CO[C@H]1/C=C/O[C@@]2(C)Oc3c(C)c(O)c4c(c3C2=O)C2=NC3(CCN(CC(C)C)CC3)NC2=C(NC(=O)/C(C)=C\C=C\[C@H](C)[C@H](O)[C@@H](C)[C@@H](O)[C@@H](C)[C@H](OC(C)=O)[C@@H]1C)C4=O [Rifabutin]
2,3.09 µM,CO[C@H]1/C=C/O[C@@]2(C)Oc3c(C)c(O)c4c(c3C2=O)C(=O)C=C(NC(=O)/C(C)=C\C=C\[C@H](C)[C@H](O)[C@@H](C)[C@@H](O)[C@@H](C)[C@H](OC(C)=O)[C@@H]1C)C4=O [Rifamycin S]
